Laboratory results taken from patent publication US20070225246A1, “O-acetyl-ADP-ribose non-hydrolyzable analogs” (priority 2006, published 2007).
Where two headings read alike, the source gives them in different places.

Legend:
[1] = HPLC stability studies at physiological temperature and pH; type: physicochemical; details: 500 μM in 50 mM Tris pH 7.5, 1 mM DTT, 37° C.
Procedure: To validate the installation of an N-acetyl as a non-hydrolyzable substitution, the stabilities of both 2′- and 3′-NAADPr were evaluated at physiological temperature and pH using conditions previously described (Borra et al., 2002, J. Biol. Chem. 277: 12632-12641). […] HPLC analysis of both 2′- and 3′-NAADPr using exact conditions indicated negligable decomposition (<1%) over 3 days and confirmed the stability of the acetyl funcitonality to spontaneous hydrolysis at physiological pH.
Reactions were carried out with both analogs (final concentration of 500 μM) in 50 mM Tris (pH 7.5 at 37° C.) containing 1 mM DTT. Samples were incubated at 37° C. over 3 days and four time points were collected (0, 24, 48, and 72 h). Each sample was quenched with H2O containing 0.05% TFA and analyzed by HPLC (analytical C18) using the method described in general procedures. Each trace was integrated (Shimadzu EZStart version 7.2.1 SP1) to determine peak area and analog percentage is shown in the following table 1. Both 2′- and 3′-NAADPr contained trace impurities at 12.9 and 12.5 min respectively and contributed to the observed degradation products visible at 23.3 min in each study.

[2] = target: T1, human macroH2A1.1 domain (Homo sapiens, UniProt O75367); assay: MacroH2A1.1 binding (calorimetry); details: method similar to Kustatcher
Source text: (§1) MacroH2A1.1 is an atypical histone variant associated with heterochromatin and implicated in transcriptional repression. […] The splice-variant MacroH2A1.2 was also studied, but no binding of ADPr was observed. The binding of 2′- and 3′-NAADPr may be evaluated using a protocol similar to that described by Kustatcher.

[3] = target: splice-variant MacroH2A1.2 (Homo sapiens, UniProt O75367); assay: MacroH2A1.2 binding (calorimetry); details: method similar to Kustatcher
Source text: as §1

[4] = target: T2, NudT9 (Homo sapiens, UniProt Q9BW91); assay: Nudix hydrolase hydrolysis by NudT9 (Michaelis-Menten); type: biochemical; details: substrate 5-300 μM, NudT9 100 ng
T2 sequence (Q9BW91 47-350): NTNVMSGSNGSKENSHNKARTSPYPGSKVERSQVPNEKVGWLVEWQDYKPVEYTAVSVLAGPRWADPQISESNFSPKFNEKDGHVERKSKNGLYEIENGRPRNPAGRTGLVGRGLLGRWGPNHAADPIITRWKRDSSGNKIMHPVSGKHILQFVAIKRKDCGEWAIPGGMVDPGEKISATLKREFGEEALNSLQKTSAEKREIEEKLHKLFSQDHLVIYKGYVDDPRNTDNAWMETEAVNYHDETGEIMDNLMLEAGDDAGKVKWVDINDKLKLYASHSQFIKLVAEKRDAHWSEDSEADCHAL
Procedure: (§2) The Nudix hydrolases, mNudT5 and YSA1, and NudT9 are a family of ADPr metabolizing enzymes. […] Reaction mixtures containing ADPr (5-300 μM) were incubated with NudT9 (100 ng) or YSA1 (10 ng). Michaelis-Menten plots were generated for the hydrolysis of ADPr by NudT9 and YSA1. […] The hydrolysis of 2′- and 3′-NAADPr is evaluated using a protocol similar to that described by Rafty.

[5] = target: T3, YSA1 (Saccharomyces cerevisiae, UniProt Q01976); assay: Nudix hydrolase hydrolysis by YSA1 (Michaelis-Menten); type: biochemical, yeast; details: substrate 5-300 μM, YSA1 10 ng
T3 sequence (Q01976 1-231): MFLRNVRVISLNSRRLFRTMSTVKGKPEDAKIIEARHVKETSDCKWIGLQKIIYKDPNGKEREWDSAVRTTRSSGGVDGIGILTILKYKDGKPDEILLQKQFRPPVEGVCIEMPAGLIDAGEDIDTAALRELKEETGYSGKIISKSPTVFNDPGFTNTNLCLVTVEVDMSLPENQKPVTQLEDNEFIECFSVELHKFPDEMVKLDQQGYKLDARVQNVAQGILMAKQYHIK
Procedure: as §2

[6] = within 3 h, physiological temperature and pH (Borra et al., 2002); cited from earlier work
[7] = target: T1, human macroH2A1.1 domain; details: calorimetry, Kustatcher et al., 2005; cited from earlier work
[8] = target: T2, NudT9; details: in vitro (Rafty et al., 2002); cited from earlier work
[9] = target: T3, YSA1; details: in vitro (Rafty et al., 2002); cited from earlier work
[10] = target: mNudT5 (Mus musculus, UniProt Q9JKX6); details: in vitro (Rafty et al., 2002); cited from earlier work
mNudT5, sequence (Q9JKX6 whole entry): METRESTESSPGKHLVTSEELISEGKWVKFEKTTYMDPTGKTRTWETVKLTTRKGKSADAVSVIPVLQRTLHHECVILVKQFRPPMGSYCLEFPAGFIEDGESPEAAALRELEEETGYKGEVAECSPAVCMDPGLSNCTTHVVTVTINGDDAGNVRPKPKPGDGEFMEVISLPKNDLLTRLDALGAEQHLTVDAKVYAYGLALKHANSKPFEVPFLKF

T1 sequence (O75367 184-367 limits assumed): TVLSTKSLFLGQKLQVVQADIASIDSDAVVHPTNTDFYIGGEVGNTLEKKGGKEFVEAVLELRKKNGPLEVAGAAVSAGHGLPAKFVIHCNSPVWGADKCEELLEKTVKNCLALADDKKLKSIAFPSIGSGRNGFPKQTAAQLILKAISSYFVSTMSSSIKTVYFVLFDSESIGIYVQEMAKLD
splice-variant MacroH2A1.2, sequence (O75367 1-372 isoform O75367-1): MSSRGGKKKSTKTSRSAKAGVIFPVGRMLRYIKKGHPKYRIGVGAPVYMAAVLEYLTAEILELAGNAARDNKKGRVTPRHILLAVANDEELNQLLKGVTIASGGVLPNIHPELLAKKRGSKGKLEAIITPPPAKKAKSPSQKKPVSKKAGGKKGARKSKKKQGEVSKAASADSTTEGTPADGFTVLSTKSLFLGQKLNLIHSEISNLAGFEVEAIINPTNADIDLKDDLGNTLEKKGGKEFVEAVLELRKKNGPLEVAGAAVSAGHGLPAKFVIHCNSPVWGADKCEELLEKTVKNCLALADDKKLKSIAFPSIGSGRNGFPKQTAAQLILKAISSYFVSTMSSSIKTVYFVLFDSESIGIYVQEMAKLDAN

With 3′-N-Acetyl-ADP-ribose [3′-NAADPr] the “analog percentage (HPLC peak area)” value ([1]; 0 h) was 95.7%, the “analog percentage (HPLC peak area)” value ([1]; 24 h) was 98.2% and the “analog percentage (HPLC peak area)” value ([1]; 48 h) was 98.0%. For the same compound, the “analog percentage (HPLC peak area)” value ([1]; 72 h) was 98.0%.
In the case of `CC(=O)NC1C(O)O[C@H](COP(=O)(O)OP(=O)(O)OC[C@H]2O[C@@H](n3cnc4c(N)ncnc43)C(O)C2O)[C@@H]1O` (stereo partly drawn) [2′-NAADPr, 2′-N-Acetyl-ADP-ribose], the “analog percentage (HPLC peak area)” value ([1]; 0 h) is reported as 98.7%, the “analog percentage (HPLC peak area)” value ([1]; 24 h) is reported as 98.7% and the “analog percentage (HPLC peak area)” value ([1]; 48 h) is reported as 98.2%. The “analog percentage (HPLC peak area)” value ([1]; 72 h) was 98.3%.
In the case of `Nc1ncnc2c1ncn2[C@@H]1O[C@H](COP(=O)(O)OP(=O)(O)OC[C@H]2OC(O)[C@H](O)[C@@H]2O)[C@@H](O)[C@H]1O` (stereo partly drawn) [ADPr, ADP-ribose], the Kd [2] is reported as 2400 nM, the enthalpy [2] is reported as -15.4 kcal/mol and the binding [3] is reported as “no binding”. For the same compound, the Km [4] was 23.9 µM, the kcat [4] was 9.3 s⁻¹ and the Km [5] was 39.9 µM. For the same compound, the kcat [5] was 6.5 s⁻¹.
In the case of O-Acetyl-ADP-ribose [OAADPr], the “hydrolyzed to ADPr” value [6] is listed as “approximately 18%”, the Kd [7] is listed as about 2000 nM and the enthalpy [7] is listed as -17.8 kcal/mol. The “hydrolysis efficiency, less efficient as compared to ADPr” value [8] was 500 fold, the “hydrolysis to AMP and acetylated ribose 5′-phosphate” value [9] was “efficiently hydrolyze” and the “hydrolysis to AMP and acetylated ribose 5′-phosphate” value [10] was “efficiently hydrolyze”.
